Measured values: paper PMC10965220 (Bioorganic chemistry, 2022)

Assays:
human COX-2 = target: T1, human COX-2 (Homo sapiens, UniProt P35354); test: In vitro COX-2 inhibition assay; settings: for COX-2 SI: Selectivity index = COX-1 IC50/COX-2 IC50
T1 sequence (P35354 18-604): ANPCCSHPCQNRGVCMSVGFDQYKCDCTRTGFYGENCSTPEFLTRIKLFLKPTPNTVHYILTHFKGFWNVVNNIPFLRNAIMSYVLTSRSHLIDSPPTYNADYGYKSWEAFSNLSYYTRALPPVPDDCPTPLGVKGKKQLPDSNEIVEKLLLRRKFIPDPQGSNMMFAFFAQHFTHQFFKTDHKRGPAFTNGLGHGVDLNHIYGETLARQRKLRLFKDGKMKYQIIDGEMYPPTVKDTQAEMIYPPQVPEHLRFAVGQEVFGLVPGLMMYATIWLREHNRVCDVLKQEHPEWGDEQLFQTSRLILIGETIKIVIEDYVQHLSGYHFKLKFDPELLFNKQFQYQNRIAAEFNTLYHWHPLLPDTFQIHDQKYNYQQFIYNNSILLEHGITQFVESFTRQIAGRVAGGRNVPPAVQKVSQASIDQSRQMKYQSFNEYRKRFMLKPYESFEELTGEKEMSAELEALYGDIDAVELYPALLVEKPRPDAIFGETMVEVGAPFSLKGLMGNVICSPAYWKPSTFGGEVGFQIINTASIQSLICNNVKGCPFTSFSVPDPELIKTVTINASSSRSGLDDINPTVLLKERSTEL

human COX-1 = target: T2, human COX-1 (Ovis aries, UniProt P05979); test: In vitro COX-1 inhibition assay
T2 sequence (P05979 25-600): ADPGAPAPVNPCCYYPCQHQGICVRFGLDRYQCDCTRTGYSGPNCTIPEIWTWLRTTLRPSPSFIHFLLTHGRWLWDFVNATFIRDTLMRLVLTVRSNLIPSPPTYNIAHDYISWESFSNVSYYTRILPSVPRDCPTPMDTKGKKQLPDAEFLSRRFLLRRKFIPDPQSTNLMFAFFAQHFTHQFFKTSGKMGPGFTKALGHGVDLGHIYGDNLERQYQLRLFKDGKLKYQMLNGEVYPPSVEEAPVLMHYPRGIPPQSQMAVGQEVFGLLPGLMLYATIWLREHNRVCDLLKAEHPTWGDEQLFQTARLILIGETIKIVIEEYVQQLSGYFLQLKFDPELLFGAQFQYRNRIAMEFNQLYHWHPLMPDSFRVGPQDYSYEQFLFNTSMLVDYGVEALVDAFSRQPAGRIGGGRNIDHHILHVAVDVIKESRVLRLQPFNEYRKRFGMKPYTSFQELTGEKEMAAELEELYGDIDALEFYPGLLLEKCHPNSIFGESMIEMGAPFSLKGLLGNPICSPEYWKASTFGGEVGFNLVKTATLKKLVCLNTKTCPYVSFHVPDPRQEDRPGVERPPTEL

[1] = system: LPS-induced ROS production in RAW 264.7 cells; test: ROS production in LPS-activated RAW 264.7 macrophages; assay type: cell-based, murine; settings: vs reference celecoxib
[2] = system: LPS-induced NO production in RAW 264.7 cells; test: NO production in LPS-activated RAW 264.7 macrophages; assay type: cell-based, murine; settings: vs reference celecoxib

CC(=O)c1ccc(NC(=O)CSc2nnc(-c3ccc(NC(=O)c4cccnc4)cc3)o2)cc1 [Compound 8a, N-(4-(5-((2-((4-Acetylphenyl)amino)-2-oxoethyl)thio)-1,3,4-oxadiazol-2-yl)phenyl)nicotinamide]
IC50 (human COX-2): 0.05 ± 0.01 µM
COX-2 SI (human COX-2): 230
IC50 (human COX-1): 11.5 ± 1.01 µM

O=C(CSc1nnc(-c2ccc(NC(=O)c3cccnc3)cc2)o1)Nc1ccc([N+](=O)[O-])cc1 [Compound 8b, N-(4-(5-((2-((4-Nitrophenyl)amino)-2-oxoethyl)thio)-1,3,4-oxadiazol-2-yl)phenyl)nicotinamide]
fold lower ROS IC50 than celecoxib [1]: about 476 fold
IC50 (human COX-2): 0.14 ± 0.01 µM
COX-2 SI (human COX-2): 60.71
IC50 (human COX-1): 8.5 ± 0.6 µM
fold better NO IC50 than celecoxib [2]: more than 41 fold

Cc1ccc(NC(=O)CSc2nnc(-c3ccc(NC(=O)c4cccnc4)cc3)o2)cc1 [Compound 8c, N-(4-(5-((2-((4-Methylphenyl)amino)-2-oxoethyl)thio)-1,3,4-oxadiazol-2-yl)phenyl)nicotinamide]
IC50 (human COX-2): 0.05 ± 0.01 µM
COX-2 SI (human COX-2): 230
IC50 (human COX-1): 11.5 ± 0.85 µM

Cc1ccc(C)c(NC(=O)CSc2nnc(-c3ccc(NC(=O)c4cccnc4)cc3)o2)c1 [Compound 8d, N-(4-(5-((2-((2,5-Dimethylphenyl)amino)-2-oxoethyl)thio)-1,3,4-oxadiazol-2-yl)phenyl) nicotinamide]
IC50 (human COX-2): 0.16 ± 0.04 µM
COX-2 SI (human COX-2): 65.63
IC50 (human COX-1): 10.5 ± 2.98 µM

O=C(CSc1nnc(-c2ccc(NC(=O)c3cccnc3)cc2)o1)Nc1ccc(F)cc1 [Compound 8e, N-(4-(5-((2-((4-Fluorophenyl)amino)-2-oxoethyl)thio)-1,3,4-oxadiazol-2-yl)phenyl)nicotinamide]
IC50 (human COX-2): 0.11 ± 0.01 µM
COX-2 SI (human COX-2): 68.18
IC50 (human COX-1): 7.5 ± 0.75 µM

O=C(CSc1nnc(-c2ccc(NC(=O)c3cccnc3)cc2)o1)Nc1cccc(Br)c1 [Compound 8f, N-(4-(5-((2-((3-Bromophenyl)amino)-2-oxoethyl)thio)-1,3,4-oxadiazol-2-yl)phenyl)nicotinamide]
IC50 (human COX-2): 0.08 ± 0.01 µM
COX-2 SI (human COX-2): 125
IC50 (human COX-1): 10 ± 3.17 µM

O=C(CSc1nnc(-c2ccc(NC(=O)c3cccnc3)cc2)o1)Nc1ccccc1Cl [Compound 8g, N-(4-(5-((2-((2-Chlorophenyl)amino)-2-oxoethyl)thio)-1,3,4-oxadiazol-2-yl)phenyl)nicotinamide]
IC50 (human COX-2): 0.05 ± 0.01 µM
COX-2 SI (human COX-2): 170
IC50 (human COX-1): 8.5 ± 0.71 µM

Cc1ccc(C=Nn2c(-c3ccc(NC(=O)c4cccnc4)cc3)n[nH]c2=S)cc1 [Compound 10a, N-(4-(4-((4-Methylbenzylidene)amino)-5-thioxo-4,5-dihydro-1H-1,2,4-triazol-3-yl)phenyl) nicotinamide]
IC50 (human COX-2): 0.11 ± 0.02 µM
COX-2 SI (human COX-2): 104.55
IC50 (human COX-1): 11.5 ± 0.98 µM

O=C(Nc1ccc(-c2n[nH]c(=S)n2N=Cc2c[nH]c3ccccc23)cc1)c1cccnc1 [Compound 10b, N-(4-(4-(((1H-Indol-3-yl)methylene)amino)-5-thioxo-4,5-dihydro-1H-1,2,4-triazol-3-yl)phenyl) nicotinamide]
IC50 (human COX-2): 0.11 ± 0.01 µM
COX-2 SI (human COX-2): 72.73
IC50 (human COX-1): 8 ± 0.14 µM

CC(=O)c1ccc(NC(=O)CSc2nnc(-c3ccc(NC(=O)c4cccnc4)cc3)n2N)cc1 [Compound 11a, N-(4-(5-((2-((4-Acetylphenyl)amino)-2-oxoethyl)thio)-4-amino-4H-1,2,4-triazol-3-yl)phenyl) nicotinamide]
IC50 (human COX-2): 0.11 ± 0.01 µM
COX-2 SI (human COX-2): 77.27
IC50 (human COX-1): 8.5 ± 0.62 µM

Nn1c(SCC(=O)Nc2ccc([N+](=O)[O-])cc2)nnc1-c1ccc(NC(=O)c2cccnc2)cc1 [Compound 11b, N-(4-(4-Amino-5-((2-((4-nitrophenyl)amino)-2-oxoethyl)thio)-4H-1,2,4-triazol-3-yl)phenyl) nicotinamide]
IC50 (human COX-2): 0.08 ± 0.01 µM
COX-2 SI (human COX-2): 143.75
IC50 (human COX-1): 11.5 ± 1.41 µM

Cc1ccc(NC(=O)CSc2nnc(-c3ccc(NC(=O)c4cccnc4)cc3)n2N)cc1 [Compound 11c, N-(4-(4-Amino-5-((2-((4-methylphenyl)amino)-2-oxoethyl)thio)-4H-1,2,4-triazol-3-yl)phenyl) nicotinamide]
IC50 (human COX-2): 0.04 ± 0.01 µM
COX-2 SI (human COX-2): 337.5
IC50 (human COX-1): 13.5 ± 1.63 µM

Cc1ccc(C)c(NC(=O)CSc2nnc(-c3ccc(NC(=O)c4cccnc4)cc3)n2N)c1 [Compound 11d, N-(4-(4-Amino-5-((2-((2,5-dimethylphenyl)amino)-2-oxoethyl)thio)-4H-1,2,4-triazol-3-yl)phenyl) nicotinamide]
IC50 (human COX-2): 0.08 ± 0.01 µM
COX-2 SI (human COX-2): 131.25
IC50 (human COX-1): 10.5 ± 3.03 µM

Nn1c(SCC(=O)Nc2ccc(F)cc2)nnc1-c1ccc(NC(=O)c2cccnc2)cc1 [Compound 11e, N-(4-(4-Amino-5-((2-((4-fluorophenyl)amino)-2-oxoethyl)thio)-4H-1,2,4-triazol-3-yl)phenyl) nicotinamide]
IC50 (human COX-2): 0.06 ± 0.01 µM
COX-2 SI (human COX-2): 166.67
IC50 (human COX-1): 10 ± 2.34 µM

Nn1c(SCC(=O)Nc2cccc(Br)c2)nnc1-c1ccc(NC(=O)c2cccnc2)cc1 [Compound 11f, N-(4-(4-Amino-5-((2-((3-bromophenyl)amino)-2-oxoethyl)thio)-4H-1,2,4-triazol-3-yl)phenyl) nicotinamide]
IC50 (human COX-2): 0.09 ± 0.01 µM
COX-2 SI (human COX-2): 105.56
IC50 (human COX-1): 9.5 ± 0.99 µM

Nn1c(SCC(=O)Nc2ccccc2Cl)nnc1-c1ccc(NC(=O)c2cccnc2)cc1 [Compound 11g, N-(4-(4-Amino-5-((2-((2-chlorophenyl)amino)-2-oxoethyl)thio)-4H-1,2,4-triazol-3-yl)phenyl) nicotinamide]
IC50 (human COX-2): 0.08 ± 0.01 µM
COX-2 SI (human COX-2): 131.25
IC50 (human COX-1): 10.5 ± 2.25 µM
